Patent US20100034757A1, “EXTRACT POWDER OF INDIGO PLANT, AND ITS PREPARATION AND USES” (priority 2006, published 2010)
Converted amounts (≈) assume the structure as drawn. Read-outs that look alike come from different tables or passages of the source. Values belong to the compound of their own block, whether it stands above or below them.

How the values were obtained:
[1] = system: mouse melanoma B16 cells; experiment: Influence of extract powder and other skin-whitening ingredients on melanin formation (Test 2 for in vitro skin-whitening effect, Experiment 4); format: cell-based; set-up: Judgement, 1.25% extract powder of indigo plant: key to the marks not given beside the values; conditions: 72 hours
Method: The following experiment was conducted to examine the influence of an extract powder of indigo plant and other ingredients with skin-whitening action on melanin formation. Mouse melanoma B16 cells were cultured for 24 hours, and to the resulting culture was added any one of the test solutions to give a composition ratio (%) of each of […], followed by culturing for 72 hours. The viable cells were counted and packed into a capillary tube for color observation. The judgement of the effects was evaluated based on the same criterion as in Experiment 1. In this experiment system, the effect in the case of culturing the cells with addition of 0.025% of the extract powder of indigo extract was judged to be “+”.

[2] = system: mouse melanoma B16 cells; experiment: Influence on melanin formation, blackening of cells (Test 1 for in vitro whitening effect, Experiment 3); format: cell-based; conditions: medium containing 2.5 mM; cultured 72 hours
Method: Using a dried leaf of Polygonum tinctorium Lour., Japanese knotweed, buckwheat, or knotgrass as a plant of the family Polygonaceae, extract powders of which were prepared. The extract powders of indigo plant were prepared by the method in later described Example 2. According to the same method as in Example 2, using a dried leaf of Japanese knotweed, buckwheat, or knotgrass in place of the one of Polygonum tinctorium Lour., extract powders of the above plants were prepared for use in the following experiment, where, as an extract powder of indigo plant, the one prepared by the method in later described Example 2 was used, unless specified otherwise. […] After counting the number of viable cells, the viable cells were packed into a capillary tube for color observation. […] The degree of blackening of the B16 cells was evaluated based on the following criterion, and the results are in Table 3. Evaluations with Reference to the Blackening Degree of Control Free of Agent: −: Unchanged; ±: Slight inhibition of blackening; +: Positive inhibition of blackening; ++: Clear inhibition of blackening; +++: Complete inhibition of blackening.

[3] = system: A. actinomycetemcomitans; experiment: Minimum inhibitory concentration (MIC), Experiment 13; format: cell-based, Actinobacillus actinomycetemcomitans; conditions: for MIC: Aggregatibacter actinomycetemcomitans, read-out: Minimum inhibitory concentration (MIC)
Method: (§1) The following experiment was conducted to examine the influence of an extract powder of indigo plant on microorganisms in human oral cavity. An extract powder of indigo plant, prepared by the method in the later described Example 1, was dissolved in refined water to obtain an aqueous solution with a concentration of 1.5% indigo plant extract, d.s.b. Using the aqueous solution, the minimum inhibitory concentration (may be designated as “MIC”, hereinafter) against microorganisms in human oral cavity (microorganisms as causatives of periodontal diseases and dental caries) was determined. Tryptanthrin, gallic acid, and caffeic acid, which had been confirmed to be contained in the indigo extract, were determined for MIC against microorganisms in human oral cavity, and the data was shown in Table 9 in parallel. The following method was used for assaying MIC.
(§2) The MICs of an extract powder of indigo plant, tryptanthrin, gallic acid, and caffeic acid against microorganisms in human oral cavity were determined according to the standard method of Japanese Society of Chemotherapy (see “Saikin-Shinkin-Kensa (Test for Bacteria and Fungi), 2nd Edition”, pp. 524-529 (1982)). Examples of microorganisms, used as causatives of periodontal diseases, were microorganisms of Prophyromonas gingivalis strains such as JCM8525, JCM12257, and ATCC 33277 strains; those of Actinobacillus actinomycetemcomitans (may be abbreviated as “A. actinomycetemcomitans”) such as JCM2434 and JCM8577 strains; Prevotella intermedia (may be abbreviated as P. intermedia) JCM7365 strain; and Campylobacter rectus (may be abbreviated as C. rectus) JMC6301 strain. Examples of microorganisms, used as causatives of dental caries, were Streptococcus mutans strains such as OMZ-175, OMZ-176, OMZ-65, OMZ-61, B-13D, and Ingbritt strains; and Streptococcus sobrinus (may be abbreviated as “S. sobrinus”) 6715 strain. Among these microorganisms, those which are causatives of periodontal diseases were cultured at 37° C. for 48 hours, while those which are causatives of dental caries were cultured at 37° C. for 18 to 24 hours under anaerobic conditions by using a brain heart infusion (abbreviated as “BHI”, hereinafter), commercialized by Difco Laboratories, Detroit, USA, supplemented with 5 μg/ml of hemin, and 0.5 μg/ml of vitamin K3. The resulting cultures of the microorganisms, as causatives of both periodontal diseases and dental caries, were respectively diluted into solutions with 10^8 cells and 10^6 cells.

[4] = system: P. gingivalis; experiment: as above; format: cell-based, Prophyromonas gingivalis; conditions: for MIC: Porphyromonas gingivalis
Method: as §1, §2

[5] = system: C. rectus; experiment: as above; format: cell-based; conditions: Campylobacter rectus, read-out: Minimum inhibitory concentration (MIC)
Method: as §1, §2

[6] = system: S. mutans; experiment: as above; format: cell-based; conditions: Streptococcus mutans
Method: as §1, §2

[7] = system: P. intermedia; experiment: as above; format: cell-based; conditions: Prevotella intermedia, read-out: Minimum inhibitory concentration (MIC)
Method: as §1, §2

[8] = system: S. sobrinus; experiment: as above; format: cell-based; conditions: Streptococcus sobrinus, read-out: Minimum inhibitory concentration (MIC)
Method: as §1, §2

[9] = ingredient 0.5% in combination with extract powder of indigo plant
[10] = ingredient 1.0% in combination with extract powder of indigo plant
[11] = strain JMC12257, read-out: Minimum inhibitory concentration (MIC)
[12] = strain B-13D, read-out: Minimum inhibitory concentration (MIC)
[13] = strain Ingbritt, read-out: Minimum inhibitory concentration (MIC)
[14] = strain OMZ-61, read-out: Minimum inhibitory concentration (MIC)
[15] = strain OMZ-65, read-out: Minimum inhibitory concentration (MIC)
[16] = strain OMZ-175, read-out: Minimum inhibitory concentration (MIC)
[17] = strain OMZ-176, read-out: Minimum inhibitory concentration (MIC)

SMILES: CCCCc1ccc(O)cc1O [4-n-Butylresorcinol]
Judgement, With no extract powder of indigo plant ([1]; composition ratio 0.5%): +
Judgement, 1.25% extract powder of indigo plant [1, 9]: +++

SMILES: O=c1cc(CO)occ1O [Kojic acid]
Judgement, With no extract powder of indigo plant ([1]; composition ratio 1.0%): +
Judgement, 1.25% extract powder of indigo plant [1, 10]: +++
Judgement (inhibition of blackening of B16 cells) [2]: +

SMILES: CCCCC/C=C\C/C=C\CCCCCCCC(=O)O [Linoleic acid]
Judgement, With no extract powder of indigo plant ([1]; composition ratio 0.5%): ±
Judgement, 1.25% extract powder of indigo plant [1, 9]: ++

SMILES: O=C1c2ccccc2-n2c1nc1ccccc1c2=O [Tryptanthrin]
MIC [3]: 25 µg/mL (≈ 101 µM)
Minimum inhibitory concentration (MIC) ([3]; strain JMC2434): 25 µg/mL (≈ 101 µM)
MIC ([4]; read-out: Minimum inhibitory concentration (MIC), strain JMC8525): 6.25 µg/mL (≈ 25.2 µM)
MIC ([4]; read-out: Minimum inhibitory concentration (MIC), strain JMC12257): 12.5 µg/mL (≈ 50.4 µM)
MIC ([4]; read-out: Minimum inhibitory concentration (MIC), strain JMC33277): 12.5 µg/mL (≈ 50.4 µM)
MIC [5]: 25 µg/mL (≈ 101 µM)
MIC ([6]; read-out: Minimum inhibitory concentration (MIC), strain B-13D): 6.25 µg/mL (≈ 25.2 µM)
MIC ([6]; read-out: Minimum inhibitory concentration (MIC), strain Ingbritt): 25 µg/mL (≈ 101 µM)
MIC ([6]; read-out: Minimum inhibitory concentration (MIC), strain OMZ-61): 6.25 µg/mL (≈ 25.2 µM)
MIC ([6]; read-out: Minimum inhibitory concentration (MIC), strain OMZ-65): 12.5 µg/mL (≈ 50.4 µM)
MIC ([6]; read-out: Minimum inhibitory concentration (MIC), strain OMZ-175): 6.25 µg/mL (≈ 25.2 µM)
MIC ([6]; read-out: Minimum inhibitory concentration (MIC), strain OMZ-176): 12.5 µg/mL (≈ 50.4 µM)
MIC [7]: 6.25 µg/mL (≈ 25.2 µM)
MIC [8]: 25 µg/mL (≈ 101 µM)

SMILES: O=c1oc2c(O)c(O)cc3c(=O)oc4c(O)c(O)cc1c4c23 [Ellagic acid]
Judgement, With no extract powder of indigo plant ([1]; composition ratio 0.5%): ±
Judgement, 1.25% extract powder of indigo plant [1, 9]: ++

SMILES: O=C1O[C@H]([C@@H](O)CO)C([O-])=C1O.[Na+] [Sodium L-ascorbate]
Judgement, With no extract powder of indigo plant ([1]; composition ratio 2.0%): +
Judgement, 1.25% extract powder of indigo plant ([1]; ingredient 2.0% in combination with extract powder of indigo plant): +++

MIC ([3]; strain JMC2434): 800 µg/mL (≈ 4700 µM)
MIC ([3]; strain JMC8577): 800 µg/mL (≈ 4700 µM)
MIC [4, 11]: 400 µg/mL (≈ 2350 µM)
Minimum inhibitory concentration (MIC) ([4]; strain JCM8525): 400 µg/mL (≈ 2350 µM)
Minimum inhibitory concentration (MIC) ([4]; strain JMC33277): 400 µg/mL (≈ 2350 µM)
MIC ([5]; strain JMC6301): 400 µg/mL (≈ 2350 µM)
MIC [6, 12]: 200 µg/mL (≈ 1180 µM)
MIC [6, 13]: 1600 µg/mL (≈ 9410 µM)
MIC [6, 14]: 200 µg/mL (≈ 1180 µM)
MIC [6, 15]: 1600 µg/mL (≈ 9410 µM)
MIC [6, 16]: 400 µg/mL (≈ 2350 µM)
MIC [6, 17]: 400 µg/mL (≈ 2350 µM)
MIC ([7]; strain JMC7365): 400 µg/mL (≈ 2350 µM)
MIC ([8]; strain 6715): 800 µg/mL (≈ 4700 µM)
SMILES: O=C(O)c1cc(O)c(O)c(O)c1 [Gallic acid]

SMILES: COc1cc(CCC(=O)CC(=O)CCc2ccc(O)c(OC)c2)ccc1O [Tetrahydrocurcumin]
Judgement, With no extract powder of indigo plant ([1]; composition ratio 0.5%): ±
Judgement, 1.25% extract powder of indigo plant [1, 9]: ++

MIC ([3]; strain JMC2434): 400 µg/mL (≈ 2220 µM)
MIC ([3]; strain JMC8577): 200 µg/mL (≈ 1110 µM)
MIC [4, 11]: 400 µg/mL (≈ 2220 µM)
Minimum inhibitory concentration (MIC) ([4]; strain JCM8525): 400 µg/mL (≈ 2220 µM)
Minimum inhibitory concentration (MIC) ([4]; strain JMC33277): 400 µg/mL (≈ 2220 µM)
MIC ([5]; strain JMC6301): 100 µg/mL (≈ 555 µM)
MIC [6, 12]: 200 µg/mL (≈ 1110 µM)
MIC [6, 13]: 1600 µg/mL (≈ 8880 µM)
MIC [6, 14]: 400 µg/mL (≈ 2220 µM)
MIC [6, 15]: 200 µg/mL (≈ 1110 µM)
MIC [6, 16]: 400 µg/mL (≈ 2220 µM)
MIC [6, 17]: 800 µg/mL (≈ 4440 µM)
MIC ([7]; strain JMC7365): 400 µg/mL (≈ 2220 µM)
MIC ([8]; strain 6715): 800 µg/mL (≈ 4440 µM)
SMILES: O=C(O)/C=C/c1ccc(O)c(O)c1 [Caffeic acid]

SMILES: NC[C@H]1CC[C@H](C(=O)O)CC1 [Tranexamic acid]
Judgement, With no extract powder of indigo plant ([1]; composition ratio 1.0%): ±
Judgement, 1.25% extract powder of indigo plant [1, 10]: ++

SMILES: OC[C@H]1O[C@@H](Oc2ccc(O)cc2)[C@H](O)[C@@H](O)[C@@H]1O [Arbutin]
Judgement, With no extract powder of indigo plant ([1]; composition ratio 0.5%): +
Judgement, 1.25% extract powder of indigo plant [1, 9]: +++

SMILES: COc1ccc(C(=O)[O-])c(O)c1.[K+] [4-Methoxysalicylic acid potassium salt]
Judgement, With no extract powder of indigo plant ([1]; composition ratio 1.0%): +
Judgement, 1.25% extract powder of indigo plant [1, 10]: +++
